Reference: patent US9302999B2, “Substituted triazoles as herbicides” (E. I. DU PONT DE NEMOURS AND COMPANY, priority 2012, dated 2016)

Tests used:
Assay type in all cases: in vivo
kochia (Kochia scoparia) = test: Test C pre-/postemergence: kochia; settings: Postemergence
In short: (§1)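 Preemergence on seeds in loam/sand, postemergence on 2–18 cm (1–4-leaf) plants in peat-based medium; compounds in non-phytotoxic solvent with surfactant. After 13–15 days in greenhouse, visual rating versus controls, 0 (no effect) to 100 (complete control).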

[1] = tested on: barnyardgrass (Echinochloa crus-galli); test: Test A pre-/postemergence: barnyardgrass; settings: for Barnyardgrass plant response rating: visual rating on 0 to 100 scale (0 no effect, 100 complete control), approximately ten days
In short: (§2)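 Rating scale 0–100 (100 = complete control), visual, ~10 days after application in the greenhouse. Applications: preemergence directed soil spray; postemergence at 1–2 leaves.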

[2] = tested on: johnsongrass (Sorghum halepense); test: Test C pre-/postemergence: johnsongrass
In short: as §1

corn (Zea mays) = test: Test A pre-/postemergence: corn; settings: for Corn plant response rating: visual rating on 0 to 100 scale (0 no effect, 100 complete control), approximately ten days
In short: as §2

[3] = tested on: galium (catchweed bedstraw, Galium aparine); test: Test C pre-/postemergence: galium
In short: as §1

[4] = tested on: ragweed (common ragweed, Ambrosia elation); test: Test C pre-/postemergence: ragweed
In short: as §1

rice (Oryza sativa) = test: Test B flooded paddy: rice; settings: Flood; 250 g ai/ha; applied to paddy water at 2-leaf stage; visually evaluated after 13 to 15 days
In short: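 Plants were grown to the 2-leaf stage, then pots were flooded to 3 cm above the soil and compounds were applied directly into the paddy water. Water depth was held for the whole test; after 13 to 15 days in a greenhouse, injury was visually rated against untreated controls (0 = no effect, 100 = complete control).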

[5] = tested on: velvetleaf (Abutilon theophrasti); test: Test C pre-/postemergence: velvetleaf
In short: as §1

[6] = tested on: morningglory (Ipomoea spp.); test: Test A pre-/postemergence: morningglory; settings: for Morningglory plant response rating: visual rating on 0 to 100 scale (0 no effect, 100 complete control), approximately ten days
In short: as §2

[7] = tested on: lambsquarters (Chenopodium album); test: Test C pre-/postemergence: lambsquarters
In short: as §1

[8] = 31 g ai/ha, scale 0 to 100 (0 no effect, 100 complete control)
[9] = 62 g ai/ha, scale 0 to 100 (0 no effect, 100 complete control)
[10] = 125 g ai/ha, scale 0 to 100, 0 no effect, 100 complete control
[11] = Postemergence, 125 g ai/ha, 0 to 100 scale, 0 is no effect, 100 is complete control
[12] = Preemergence, 125 g ai/ha, 0 to 100 scale where 0 is no effect and 100 is complete control
[13] = Preemergence, 500 g ai/ha, 0 to 100 scale (0 no effect, 100 complete control)
[14] = Postemergence, 31 g ai/ha, scale 0 to 100 (0 no effect, 100 complete control)
[15] = Postemergence, 62 g ai/ha, scale 0 to 100 (0 no effect, 100 complete control)
[16] = Postemergence, 125 g ai/ha, scale 0 to 100, 0 no effect, 100 complete control
[17] = Postemergence, 250 g ai/ha, scale 0 to 100
[18] = Preemergence, 31 g ai/ha, scale of 0 to 100, 0 is no effect, 100 is complete control
[19] = Preemergence, 62 g ai/ha, scale of 0 to 100, 0 is no effect, 100 is complete control
[20] = Preemergence, 125 g ai/ha, scale 0 to 100, 0 no effect, 100 complete control
[21] = Preemergence, 250 g ai/ha, scale 0 to 100, 0 no effect, 100 complete control
[22] = Postemergence, 16 g ai/ha, scale 0 to 100, 0 no effect, 100 complete control
[23] = Preemergence, 16 g ai/ha, scale 0 (no effect) to 100 (complete control)

Cc1nn(-c2ccc(F)c(C(F)(F)F)c2)nc1Cc1ccnc(C(F)(F)F)c1 [Compound 156]
30: Plant response rating, Ragweed [4, 20]
50: Plant response rating, Johnsongrass [2, 15] | Plant response rating, Rice (0 to 100 scale, 0 is no effect, 100 is complete control) (rice (Oryza sativa)) | Plant response rating, Velvetleaf [5, 15]
95: Plant response rating, Kochia (kochia (Kochia scoparia); 250 g ai/ha, scale 0 to 100) | Plant response rating, Johnsongrass [2, 21] | Plant response rating, Galium [3, 17]
40: Plant response rating, Corn (corn (Zea mays); [11]) | Plant response rating, Corn (corn (Zea mays); [12]) | Plant response rating, Velvetleaf [5, 19] | Plant response rating, Velvetleaf [5, 20]
45: Plant response rating, Johnsongrass [2, 14] | Plant response rating, Velvetleaf [5, 14]
98: Plant response rating, Lambsquarters [7, 14] | Plant response rating, Lambsquarters [7, 15] | Plant response rating, Lambsquarters [7, 16] | Plant response rating, Lambsquarters [7, 17]
90: Plant response rating, Kochia (kochia (Kochia scoparia); [8]) | Plant response rating, Kochia (kochia (Kochia scoparia); [9]) | Plant response rating, Kochia (kochia (Kochia scoparia); [10]) | Plant response rating, Barnyardgrass [1, 11] | Barnyardgrass plant response rating ([1]; Postemergence, 500 g ai/ha) | Plant response rating, Johnsongrass [2, 19] | Plant response rating, Johnsongrass [2, 20] | Plant response rating, Galium [3, 15] | Plant response rating, Galium [3, 16] | Plant response rating, Morningglory [6, 11] | Morningglory plant response rating ([6]; Postemergence, 500 g ai/ha) | Plant response rating, Morningglory [6, 13]
65: Plant response rating, Johnsongrass [2, 16]
70: Corn plant response rating (corn (Zea mays); Postemergence, 500 g ai/ha) | Plant response rating, Corn (corn (Zea mays); [13])
60: Plant response rating, Ragweed [4, 21] | Plant response rating, Velvetleaf [5, 16]
5: Plant response rating, Ragweed [4, 18] | Plant response rating, Velvetleaf [5, 18]
75: Plant response rating, Johnsongrass [2, 18] | Plant response rating, Ragweed [4, 14] | Plant response rating, Ragweed [4, 15] | Plant response rating, Ragweed [4, 16]
80: Plant response rating, Galium [3, 14] | Plant response rating, Ragweed [4, 17] | Plant response rating, Velvetleaf [5, 17] | Plant response rating, Morningglory [6, 12]
85: Plant response rating, Johnsongrass [2, 17] | Plant response rating, Galium [3, 18]
10: Plant response rating, Ragweed [4, 19]
100: Plant response rating, Barnyardgrass [1, 12] | Plant response rating, Barnyardgrass [1, 13] | Plant response rating, Galium [3, 19] | Plant response rating, Galium [3, 20] | Plant response rating, Galium [3, 21] | Plant response rating, Velvetleaf [5, 21] | Plant response rating, Lambsquarters [7, 18] | Plant response rating, Lambsquarters [7, 19] | Plant response rating, Lambsquarters [7, 20] | Plant response rating, Lambsquarters [7, 21]

FCc1nn(-c2ccc(F)cc2)nc1Oc1ccnc(C(F)(F)F)c1 [Compound 160]
60: Corn plant response rating (corn (Zea mays); Postemergence, 500 g ai/ha)
5: Plant response rating, Galium [3, 18] | Plant response rating, Ragweed [4, 19] | Plant response rating, Ragweed [4, 20] | Plant response rating, Velvetleaf [5, 18]
10: Plant response rating, Johnsongrass [2, 22] | Plant response rating, Ragweed [4, 22] | Plant response rating, Ragweed [4, 14]
95: Plant response rating, Kochia (kochia (Kochia scoparia); [9]) | Plant response rating, Kochia (kochia (Kochia scoparia); [10]) | Plant response rating, Galium [3, 16] | Plant response rating, Lambsquarters [7, 15] | Plant response rating, Lambsquarters [7, 16] | Plant response rating, Lambsquarters [7, 23]
0: Plant response rating, Ragweed [4, 23] | Plant response rating, Ragweed [4, 18] | Plant response rating, Velvetleaf [5, 23]
70: Plant response rating, Barnyardgrass [1, 11] | Plant response rating, Morningglory [6, 13] | Plant response rating, Lambsquarters [7, 22]
40: Plant response rating, Corn (corn (Zea mays); [13]) | Plant response rating, Ragweed [4, 15] | Plant response rating, Ragweed [4, 16] | Plant response rating, Morningglory [6, 12]
90: Plant response rating, Kochia (kochia (Kochia scoparia); 16 g ai/ha, scale 0 to 100, 0 no effect, 100 complete control) | Plant response rating, Kochia (kochia (Kochia scoparia); [8]) | Barnyardgrass plant response rating ([1]; Postemergence, 500 g ai/ha) | Plant response rating, Morningglory [6, 11] | Morningglory plant response rating ([6]; Postemergence, 500 g ai/ha)
75: Plant response rating, Velvetleaf [5, 16]
50: Plant response rating, Velvetleaf [5, 15]
55: Plant response rating, Galium [3, 22] | Plant response rating, Rice (0 to 100 scale, 0 is no effect, 100 is complete control) (rice (Oryza sativa))
80: Plant response rating, Galium [3, 14] | Plant response rating, Lambsquarters [7, 14]
15: Plant response rating, Johnsongrass [2, 14]
100: Plant response rating, Barnyardgrass [1, 12] | Plant response rating, Barnyardgrass [1, 13] | Plant response rating, Johnsongrass [2, 18] | Plant response rating, Johnsongrass [2, 19] | Plant response rating, Johnsongrass [2, 20] | Plant response rating, Galium [3, 19] | Plant response rating, Galium [3, 20] | Plant response rating, Lambsquarters [7, 18] | Plant response rating, Lambsquarters [7, 19] | Plant response rating, Lambsquarters [7, 20]
85: Plant response rating, Johnsongrass [2, 23] | Plant response rating, Galium [3, 15]
20: Plant response rating, Corn (corn (Zea mays); [12]) | Plant response rating, Velvetleaf [5, 22]
30: Plant response rating, Johnsongrass [2, 16] | Plant response rating, Corn (corn (Zea mays); [11]) | Plant response rating, Velvetleaf [5, 14] | Plant response rating, Velvetleaf [5, 19] | Plant response rating, Velvetleaf [5, 20]
